In article PMC9410914 (2022):

Test system: WT R-mRNA+30 (I-2S8) (RNA, riboswitch) GGGCAGUGAGCAACAAAAUGCUCACCUGGGUCGCAGUAACCCCAGUUAACAAAACAAGGGAGGUAAUUUUGUGCCCAAAAAAAGAAUAAAAGAUUUAGCU
Assay: single-molecule TIRF (SiM-KARB), 30S binding/dissociation rates vs preQ1, global Hill fit
Conditions: K+ 100 mM, Mg2+ 5 mM, NH4+ 5 mM, Ca2+ 0.5 mM; apparent; Tris-polymix pH 7.5, spermidine, putrescine; 20 nM Cy5-30S ribosomal subunits present; indirect readout

K1/2: ~ 48 nM
Compound: NCc1c[nH]c2nc(N)[nH]c(=O)c12
